The source made the active and inactive calls. Cut-off read from the data, not from the text of the source, for most assays here: actives have a measured Kd and inactives only a lower limit.

Test [1] has as its target T1, Serine/threonine-protein kinase 3 (Homo sapiens, UniProt Q13188).
T1 sequence (Q13188 whole entry): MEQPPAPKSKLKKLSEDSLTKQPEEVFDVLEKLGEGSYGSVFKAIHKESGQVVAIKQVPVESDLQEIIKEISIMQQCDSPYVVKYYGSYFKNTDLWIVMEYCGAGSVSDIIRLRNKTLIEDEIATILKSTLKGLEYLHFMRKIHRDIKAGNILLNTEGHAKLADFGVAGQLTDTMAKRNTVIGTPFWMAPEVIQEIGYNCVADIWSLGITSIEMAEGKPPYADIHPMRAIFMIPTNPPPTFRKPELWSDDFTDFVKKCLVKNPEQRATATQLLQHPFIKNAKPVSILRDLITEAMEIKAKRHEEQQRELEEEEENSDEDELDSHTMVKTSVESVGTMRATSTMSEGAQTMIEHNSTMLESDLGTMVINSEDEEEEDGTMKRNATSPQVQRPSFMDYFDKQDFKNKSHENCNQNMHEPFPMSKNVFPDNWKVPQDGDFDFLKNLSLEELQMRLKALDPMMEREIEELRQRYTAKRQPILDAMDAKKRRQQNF

The target in test [2] is T2, Serine/threonine-protein kinase Nek1 (Homo sapiens, UniProt Q96PY6).
T2 sequence (Q96PY6 whole entry): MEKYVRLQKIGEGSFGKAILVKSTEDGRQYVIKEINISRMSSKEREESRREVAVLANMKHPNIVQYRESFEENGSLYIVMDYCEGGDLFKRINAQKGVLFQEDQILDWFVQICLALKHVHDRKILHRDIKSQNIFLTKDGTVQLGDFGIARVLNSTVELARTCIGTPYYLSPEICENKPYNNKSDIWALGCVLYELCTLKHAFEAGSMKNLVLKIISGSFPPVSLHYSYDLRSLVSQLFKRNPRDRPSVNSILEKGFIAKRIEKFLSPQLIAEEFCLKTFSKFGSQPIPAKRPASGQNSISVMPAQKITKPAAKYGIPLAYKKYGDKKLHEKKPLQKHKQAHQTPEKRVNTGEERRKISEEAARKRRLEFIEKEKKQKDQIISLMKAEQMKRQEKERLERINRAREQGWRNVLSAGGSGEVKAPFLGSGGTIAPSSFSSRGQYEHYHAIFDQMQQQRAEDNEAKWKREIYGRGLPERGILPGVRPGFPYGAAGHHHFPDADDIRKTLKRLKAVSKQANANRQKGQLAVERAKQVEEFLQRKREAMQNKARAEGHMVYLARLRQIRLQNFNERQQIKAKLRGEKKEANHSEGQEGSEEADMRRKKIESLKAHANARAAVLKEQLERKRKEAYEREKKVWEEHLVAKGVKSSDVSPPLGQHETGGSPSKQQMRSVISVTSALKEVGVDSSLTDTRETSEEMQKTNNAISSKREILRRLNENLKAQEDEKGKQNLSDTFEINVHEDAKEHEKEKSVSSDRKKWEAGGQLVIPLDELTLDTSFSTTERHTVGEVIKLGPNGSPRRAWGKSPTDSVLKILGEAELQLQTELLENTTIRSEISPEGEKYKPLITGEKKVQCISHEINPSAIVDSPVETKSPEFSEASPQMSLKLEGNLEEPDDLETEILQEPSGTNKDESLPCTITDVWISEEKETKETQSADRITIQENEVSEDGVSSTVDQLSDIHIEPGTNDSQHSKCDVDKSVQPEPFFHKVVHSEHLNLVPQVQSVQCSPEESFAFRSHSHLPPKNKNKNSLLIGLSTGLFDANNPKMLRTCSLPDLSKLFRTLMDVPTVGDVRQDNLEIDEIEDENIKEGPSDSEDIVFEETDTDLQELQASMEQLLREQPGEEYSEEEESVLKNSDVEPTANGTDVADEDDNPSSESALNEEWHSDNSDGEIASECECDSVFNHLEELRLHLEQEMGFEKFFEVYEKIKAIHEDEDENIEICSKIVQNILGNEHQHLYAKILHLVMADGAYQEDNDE

Test [3] concerns the target T3, Serine/threonine-protein kinase Chk1 (Homo sapiens, UniProt O14757).
T3 sequence (O14757 whole entry): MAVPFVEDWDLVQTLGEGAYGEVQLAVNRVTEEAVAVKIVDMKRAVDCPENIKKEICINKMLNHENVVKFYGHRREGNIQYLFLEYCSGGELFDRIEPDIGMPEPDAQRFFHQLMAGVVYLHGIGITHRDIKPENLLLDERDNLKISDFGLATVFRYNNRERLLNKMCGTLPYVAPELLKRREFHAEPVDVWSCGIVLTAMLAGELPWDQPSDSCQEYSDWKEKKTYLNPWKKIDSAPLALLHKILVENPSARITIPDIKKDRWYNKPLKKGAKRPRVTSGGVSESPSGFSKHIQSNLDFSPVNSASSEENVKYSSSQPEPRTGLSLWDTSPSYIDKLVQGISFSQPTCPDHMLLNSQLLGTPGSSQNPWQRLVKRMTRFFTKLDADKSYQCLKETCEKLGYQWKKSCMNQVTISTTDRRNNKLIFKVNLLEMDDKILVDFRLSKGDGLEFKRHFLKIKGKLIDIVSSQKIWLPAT

Test [4] concerns the target T4, Tyrosine-protein kinase Tec (Homo sapiens, UniProt P42680).
T4 sequence (P42680 whole entry): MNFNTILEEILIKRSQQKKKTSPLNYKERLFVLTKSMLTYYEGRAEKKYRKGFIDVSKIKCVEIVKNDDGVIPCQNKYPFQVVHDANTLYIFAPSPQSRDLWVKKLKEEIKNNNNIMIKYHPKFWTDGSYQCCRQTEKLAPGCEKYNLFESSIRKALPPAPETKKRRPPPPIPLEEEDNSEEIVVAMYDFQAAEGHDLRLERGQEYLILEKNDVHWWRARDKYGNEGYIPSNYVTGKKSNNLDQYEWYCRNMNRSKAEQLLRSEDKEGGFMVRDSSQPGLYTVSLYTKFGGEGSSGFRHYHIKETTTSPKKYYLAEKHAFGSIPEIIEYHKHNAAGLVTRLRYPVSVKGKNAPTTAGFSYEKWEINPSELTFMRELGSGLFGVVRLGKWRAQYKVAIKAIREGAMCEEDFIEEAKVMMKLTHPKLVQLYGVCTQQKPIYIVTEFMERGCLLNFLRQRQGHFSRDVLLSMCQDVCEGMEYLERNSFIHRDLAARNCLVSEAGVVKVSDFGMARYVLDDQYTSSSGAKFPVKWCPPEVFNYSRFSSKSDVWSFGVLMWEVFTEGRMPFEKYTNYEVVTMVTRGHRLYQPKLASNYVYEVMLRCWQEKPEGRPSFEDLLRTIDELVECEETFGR

The next test concerns the target LIM domain kinase 1 (Homo sapiens, UniProt P53667).
Note: in the data inactive means no Kd found up to 30 µM.

Sequence of LIM domain kinase 1 (P53667 whole entry, the tested form may be a part): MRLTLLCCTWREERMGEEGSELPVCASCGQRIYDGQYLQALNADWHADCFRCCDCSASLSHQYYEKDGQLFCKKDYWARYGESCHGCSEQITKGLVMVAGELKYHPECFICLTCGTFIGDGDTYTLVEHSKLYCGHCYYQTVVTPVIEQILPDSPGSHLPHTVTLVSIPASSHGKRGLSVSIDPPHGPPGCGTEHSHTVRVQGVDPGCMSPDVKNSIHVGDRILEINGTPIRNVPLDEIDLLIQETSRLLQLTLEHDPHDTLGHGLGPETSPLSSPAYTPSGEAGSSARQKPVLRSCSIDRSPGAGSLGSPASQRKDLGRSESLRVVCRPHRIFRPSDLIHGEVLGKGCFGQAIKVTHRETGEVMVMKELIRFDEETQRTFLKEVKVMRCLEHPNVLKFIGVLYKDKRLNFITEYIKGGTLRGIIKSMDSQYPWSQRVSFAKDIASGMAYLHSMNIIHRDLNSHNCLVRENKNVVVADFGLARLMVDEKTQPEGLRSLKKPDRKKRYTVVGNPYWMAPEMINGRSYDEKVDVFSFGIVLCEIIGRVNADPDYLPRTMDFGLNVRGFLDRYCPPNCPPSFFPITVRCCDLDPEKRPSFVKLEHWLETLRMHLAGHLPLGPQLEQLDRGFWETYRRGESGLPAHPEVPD

One may read the Kd as the constant that tells how readily two partners part at equilibrium. Regarding `COc1cc2nccc(Oc3ccc(NC(=O)NC4CC4)c(Cl)c3)c2cc1C(N)=O` [LENVATINIB], the Kd (in test [1]; in test [2]; in test [3]; in test [4]; at LIM domain kinase 1) was > 30 µM (inactive) in each case.
On to `CO[C@H]1C[C@@H]2CC[C@@H](C)[C@@](O)(O2)C(=O)C(=O)N2CCCC[C@H]2C(=O)O[C@H]([C@H](C)C[C@@H]2CC[C@@H](OCCO)[C@H](OC)C2)CC(=O)[C@H](C)/C=C(\C)[C@@H](O)[C@@H](OC)C(=O)[C@H](C)C[C@H](C)/C=C/C=C/C=C/1C` [EVEROLIMUS], for which the Kd (in test [1]; in test [2]; in test [3]; in test [4]; on LIM domain kinase 1) was > 30 µM (inactive) in each case.
Turning to `Cc1ccc(NC(=O)c2ccc(CN3CC[C@H](N(C)C)C3)c(C(F)(F)F)c2)cc1Nc1nccc(-c2cncnc2)n1` [BAFETINIB], the Kd (in test [1]; in test [2]; in test [3]; in test [4]; on LIM domain kinase 1) was > 30 µM (inactive) throughout.
As to `CC(C)Nc1cc(-c2c[nH]c(C(=O)N[C@H](CO)c3cccc(Cl)c3)c2)c(Cl)cn1` [ULIXERTINIB], the Kd (in test [1]; in test [2]; in test [3]; in test [4]; on LIM domain kinase 1) was > 30 µM (inactive) each time.
Turning to `O=C(Nc1cccc(Cl)c1)Nc1ncc(CCNc2ncnc3ccsc23)s1` [SNS-314], the Kd in test [2] and in test [4] was > 30 µM (inactive) throughout.
With `O=C1NC(=O)/C(=C/c2ccc3nccc(-c4ccncc4)c3c2)S1` [GSK-1059615], the Kd (in test [1]; in test [2]; in test [3]; in test [4]; on LIM domain kinase 1) was > 30 µM (inactive) throughout.
Turning to `COc1cc(CCc2cc(NC(=O)c3ccc(N4C[C@@H](C)N[C@@H](C)C4)cc3)n[nH]2)cc(OC)c1` [AZD-4547], the Kd (in test [1]; in test [2]; in test [3]; in test [4]; on LIM domain kinase 1) was > 30 µM (inactive) each time.
For `C[C@@H]1CN(Cc2ccc(F)cc2)[C@@H](C)CN1C(=O)c1cc2c(C(=O)C(=O)N(C)C)cn(C)c2cc1Cl` [TALMAPIMOD], the Kd (in test [1]; in test [2]; in test [3]; in test [4]; at LIM domain kinase 1) was > 30 µM (inactive) in each case.
In the case of `CCS(=O)(=O)N1CC(CC#N)(n2cc(-c3ncnc4[nH]ccc34)cn2)C1` [BARICITINIB], the Kd (in test [1]; in test [2]; in test [3]; in test [4]; on LIM domain kinase 1) was > 30 µM (inactive) throughout.
As for `COc1ccc(-c2ccc3c(N4CCOC[C@@H]4C)nc(N4CCOC[C@@H]4C)nc3n2)cc1CO` [AZD-8055], the Kd (in test [1]; in test [2]; in test [3]; in test [4]; on LIM domain kinase 1) was > 30 µM (inactive) in each case.
With `CN1CC[C@@H](c2c(O)cc(O)c3c(=O)cc(-c4ccccc4Cl)oc23)[C@@H]1CO`, the Kd (in test [1]; in test [2]; in test [3]; in test [4]; at LIM domain kinase 1) was > 30 µM (inactive) in each case.
As for `C=CC(=O)N1CCC(Oc2cc3c(Nc4ccc(Cl)c(Cl)c4F)ncnc3cc2OC)CC1` [POZIOTINIB], the Kd was > 30 µM (inactive) in test [1]; > 30 µM (inactive) in test [2]; > 30 µM (inactive) in test [3]; 0.069 µM (active) in test [4]; > 30 µM (inactive) on LIM domain kinase 1.
As for `Cn1cc(-c2ccc3nnc(C(F)(F)c4ccc5ncccc5c4)n3n2)cn1` [JNJ-38877605], the Kd (in test [1]; in test [2]; in test [3]; in test [4]; on LIM domain kinase 1) was > 30 µM (inactive) in each case.
For `Cc1cc(Nc2cc(N3CCN(C)CC3)nc(/C=C/c3ccccc3)n2)n[nH]1` [ENMD-2076], the Kd in test [2] and in test [4] was > 30 µM (inactive) each time.
As for `Cc1nc(N)sc1-c1ccnc(Nc2ccc(N3CCOCC3)cc2)n1` [CYC-116], the Kd in test [2] was 1.1 µM (active); on LIM domain kinase 1, 0.984 µM (active).
As to `CN1CCC(COc2cnc(-c3cccc(Cn4nc(-c5cccc(C#N)c5)ccc4=O)c3)nc2)CC1` [TEPOTINIB], the Kd (in test [1]; in test [2]; in test [4]; on LIM domain kinase 1) was > 30 µM (inactive) each time.
As to `CCc1cnn2c(NCc3ccc[n+]([O-])c3)cc(N3CCCC[C@H]3CCO)nc12` [DINACICLIB], the Kd in test [1], in test [2] and in test [4] was > 30 µM (inactive) each time.
With `OCCn1cc(-c2cnc3nnn(Cc4ccc5ncccc5c4)c3n2)cn1` [PF-04217903], the Kd in test [1], in test [2] and in test [4] was > 30 µM (inactive) in each case.
`O=C(Nc1ccc(-c2ccnc(Nc3ccc(N4CCOCC4)cc3)n2)cc1)C1CCCN1` (stereo not given) [XL-019]: the Kd in test [1], in test [2], in test [3] and in test [4] was > 30 µM (inactive) in each case.

These data come from ChEMBL document CHEMBL3991601, “The target landscape of clinical kinase drugs” (Science, 2017).
